Active and inactive are the calls of the source. The rule behind the calls is not given here.

The values that follow come from ChEMBL document CHEMBL3217415, “(Pd/C-mediated)couplingiodocyclizationcoupling strategy in discovery of novel PDE4 inhibitors: a new synthesis of pyrazolopyrimidines” (Medchemcomm, 2012).

In series [1] the target is T1, 3',5'-cyclic-AMP phosphodiesterase 4B (Homo sapiens, UniProt Q07343). The series can be described thus: Inhibition of His-tagged recombinant human PDE4B expressed in baculovirus infected sf9 cells using cAMP as substrate at 30 uM preincubated for 15 mins followed by substrate addition measured after 1 hr by luminescence assay.
The species entered for series [2] is Danio rerio. As to the kind of experiment: Toxicity in zebrafish embryo assessed as mortality at 100 uM after 1 to 24 hrs. The conditions noted are these: in vivo. The series is classed as organism-based.
Series [3] is filed under the species Danio rerio. The series can be described thus: Toxicity in zebrafish embryo assessed as effect on locomotory activity at 100 uM. The conditions noted are these: in vivo. The series is classed as organism-based.
In a further series the test system is RAW264.7. As to the kind of experiment: Inhibition of LPS-induced TNFalpha production in mouse RAW264.7 cells pretreated for 30 mins before LPS challenge by ELISA assay. The series is classed as functional, cell-based.
Series [4] is filed under the species Danio rerio. As to the kind of experiment: Toxicity in zebrafish embryo assessed as mortality at 10 to 20 uM after 1 to 24 hrs. Conditions: in vivo. The series is classed as organism-based.
The species named for series [5] is Danio rerio. The series can be described thus: Toxicity in zebrafish embryo assessed as lordosis at 10 to 20 uM after 1 to 24 hrs. Format: organism-based. Conditions: in vivo.
For series [6], the species on record is Danio rerio. As to the kind of experiment: Toxicity in zebrafish embryo assessed as effect on locomotory activity at 10 to 20 uM after 1 to 24 hrs. Format: organism-based. The conditions noted are these: in vivo.
The species named for series [7] is Danio rerio. As to the kind of experiment: Toxicity in zebrafish embryo assessed as cardiac arrhythmia at 10 to 20 uM after 24 hrs by compound microscopy. The conditions noted are these: in vivo. Format: organism-based, Heart.
The species named for series [8] is Danio rerio. As to the kind of experiment: Toxicity in zebrafish embryo assessed as increase in abnormal lesions at 10 to 20 uM after 24 hrs. The conditions noted are these: in vivo. Format: organism-based.
Series [9] concerns the target T1, 3',5'-cyclic-AMP phosphodiesterase 4B. The series can be described thus: Inhibition of His-tagged recombinant human PDE4B1 expressed in baculovirus infected sf9 cells using cAMP as substrate preincubated for 15 mins followed by substrate addition measured after 1 hr by luminescence assay.
Series [10] deals with T2, 3',5'-cyclic-AMP phosphodiesterase 4D (Homo sapiens, UniProt Q08499). The series can be described thus: Inhibition of human PDE4D2 using cAMP substrate preincubated for 15 mins followed by substrate addition measured after 1 hr by luminescence assay.
Series [11] addresses 3',5'-cyclic-AMP phosphodiesterase 4A (Homo sapiens, UniProt P27815). As to the kind of experiment: Inhibition of PDE4A4 (unknown origin) transfected in HEK293 cells assessed as forskolin-induced cAMP accumulation pretreated for 30 mins before forskolin challenge by luciferase reporter gene assay. Format: cell-based.
The target of series [12] is T1, 3',5'-cyclic-AMP phosphodiesterase 4B. As to the kind of experiment: Inhibition of PDE4B1 (unknown origin) transfected in HEK293 cells assessed as forskolin-induced cAMP accumulation pretreated for 30 mins before forskolin challenge by luciferase reporter gene assay. Format: cell-based.
For series [13], the target named is T2, 3',5'-cyclic-AMP phosphodiesterase 4D. As to the kind of experiment: Inhibition of PDE4D3 (unknown origin) transfected in HEK293 cells assessed as forskolin-induced cAMP accumulation pretreated for 30 mins before forskolin challenge by luciferase reporter gene assay. The series is classed as cell-based.
The species entered for series [14] is Danio rerio. As to the kind of experiment: Toxicity in zebrafish embryo assessed as effect on locomotory activity at 10 uM after 6 hrs. The series is classed as organism-based. The conditions noted are these: in vivo.
For series [15], the species on record is Danio rerio. As to the kind of experiment: Toxicity in zebrafish embryo assessed as effect on locomotory activity at 20 uM after 24 hrs. Format: organism-based. The conditions noted are these: in vivo.

T1 sequence (Q07343 whole entry): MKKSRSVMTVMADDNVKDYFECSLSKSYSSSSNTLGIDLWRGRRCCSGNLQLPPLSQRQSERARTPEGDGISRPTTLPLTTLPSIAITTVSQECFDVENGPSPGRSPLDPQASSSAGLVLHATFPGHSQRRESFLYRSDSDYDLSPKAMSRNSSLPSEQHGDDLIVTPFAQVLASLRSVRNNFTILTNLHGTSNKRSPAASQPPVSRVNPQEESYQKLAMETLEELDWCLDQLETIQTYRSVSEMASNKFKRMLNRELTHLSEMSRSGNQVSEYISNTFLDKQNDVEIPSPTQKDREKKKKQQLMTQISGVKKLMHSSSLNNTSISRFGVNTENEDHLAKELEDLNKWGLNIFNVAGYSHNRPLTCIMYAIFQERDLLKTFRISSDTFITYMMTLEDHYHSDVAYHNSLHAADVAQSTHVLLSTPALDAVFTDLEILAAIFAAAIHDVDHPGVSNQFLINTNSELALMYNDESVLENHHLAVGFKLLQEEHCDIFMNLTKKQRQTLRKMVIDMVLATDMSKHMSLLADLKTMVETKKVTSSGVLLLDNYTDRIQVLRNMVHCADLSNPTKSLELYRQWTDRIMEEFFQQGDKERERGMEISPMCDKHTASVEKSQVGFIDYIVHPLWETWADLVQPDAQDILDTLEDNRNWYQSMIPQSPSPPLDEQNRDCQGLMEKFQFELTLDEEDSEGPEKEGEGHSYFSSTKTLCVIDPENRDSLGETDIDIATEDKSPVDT
T2 sequence (Q08499 whole entry): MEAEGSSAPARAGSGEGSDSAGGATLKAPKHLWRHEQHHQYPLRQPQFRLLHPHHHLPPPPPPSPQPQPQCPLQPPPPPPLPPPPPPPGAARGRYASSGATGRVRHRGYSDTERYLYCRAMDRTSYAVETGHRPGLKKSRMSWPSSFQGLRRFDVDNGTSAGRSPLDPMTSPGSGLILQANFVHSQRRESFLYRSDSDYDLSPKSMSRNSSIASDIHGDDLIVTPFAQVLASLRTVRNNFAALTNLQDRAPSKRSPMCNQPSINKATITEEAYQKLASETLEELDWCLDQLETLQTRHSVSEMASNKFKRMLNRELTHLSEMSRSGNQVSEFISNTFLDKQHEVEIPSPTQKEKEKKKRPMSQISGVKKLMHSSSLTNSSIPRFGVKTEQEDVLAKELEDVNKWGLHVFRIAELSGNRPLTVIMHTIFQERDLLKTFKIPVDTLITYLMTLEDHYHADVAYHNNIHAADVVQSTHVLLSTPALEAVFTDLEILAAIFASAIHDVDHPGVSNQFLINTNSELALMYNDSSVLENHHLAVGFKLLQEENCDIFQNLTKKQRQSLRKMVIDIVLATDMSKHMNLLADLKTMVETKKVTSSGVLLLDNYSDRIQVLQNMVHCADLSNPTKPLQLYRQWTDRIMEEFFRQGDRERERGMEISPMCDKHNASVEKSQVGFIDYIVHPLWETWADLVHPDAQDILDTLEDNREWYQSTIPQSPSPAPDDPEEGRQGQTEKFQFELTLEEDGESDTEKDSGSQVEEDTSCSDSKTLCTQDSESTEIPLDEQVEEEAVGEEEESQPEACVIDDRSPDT
Chain of 3',5'-cyclic-AMP phosphodiesterase 4A (P27815 whole entry): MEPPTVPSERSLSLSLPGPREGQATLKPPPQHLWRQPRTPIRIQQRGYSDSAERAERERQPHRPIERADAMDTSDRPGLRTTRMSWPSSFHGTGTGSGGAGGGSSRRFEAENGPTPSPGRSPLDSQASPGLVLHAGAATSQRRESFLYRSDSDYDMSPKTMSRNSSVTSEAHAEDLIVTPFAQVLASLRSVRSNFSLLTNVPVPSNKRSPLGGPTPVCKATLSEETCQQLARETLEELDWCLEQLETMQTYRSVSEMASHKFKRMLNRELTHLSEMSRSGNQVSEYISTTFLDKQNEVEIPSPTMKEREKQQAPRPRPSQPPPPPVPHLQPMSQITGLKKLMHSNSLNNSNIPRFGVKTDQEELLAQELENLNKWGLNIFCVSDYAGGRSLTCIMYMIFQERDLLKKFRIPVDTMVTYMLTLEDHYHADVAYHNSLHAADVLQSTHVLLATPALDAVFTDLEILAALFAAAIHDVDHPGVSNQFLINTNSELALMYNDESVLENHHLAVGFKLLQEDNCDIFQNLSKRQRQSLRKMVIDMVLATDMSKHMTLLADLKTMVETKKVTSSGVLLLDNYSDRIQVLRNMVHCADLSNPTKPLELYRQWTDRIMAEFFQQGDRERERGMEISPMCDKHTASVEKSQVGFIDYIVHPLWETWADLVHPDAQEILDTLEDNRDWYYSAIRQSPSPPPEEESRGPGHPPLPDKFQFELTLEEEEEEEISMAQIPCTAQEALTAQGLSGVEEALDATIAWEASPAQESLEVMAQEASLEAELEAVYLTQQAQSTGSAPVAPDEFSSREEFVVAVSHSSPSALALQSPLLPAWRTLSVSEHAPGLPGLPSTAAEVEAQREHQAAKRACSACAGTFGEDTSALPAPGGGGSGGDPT

`CCCCCC#Cc1c(CCCCCC)oc(=O)c2c1nn1c(-c3ccccc3)ccnc21`: the inhibition (as a rule, the change of the read-out against control, counted positive when it falls) in series [1] was determined as 50%.
`O=c1oc(-c2ccccc2)c(-c2cnc3ccccc3c2)c2nn3c(-c4ccccc4)ccnc3c12`: the inhibition in series [1] came to 74%.
In the case of `CC(C)(C)c1ccc(C(O)CCCN2CCC(C(O)(c3ccccc3)c3ccccc3)CC2)cc1` (stereo not drawn) [TERFENADINE], the Activity result in the series filed under Danio rerio [2] and in the series filed under Danio rerio [3] was “Toxic” in each case.
`COc1ccc(C2CNC(=O)C2)cc1OC1CCCC1` (stereo not drawn) [ROLIPRAM]: in the series with RAW264.7, the half-inhibitory concentration (IC50) (as a rule, the concentration that gives 50% inhibition) worked out at 0.19 µM. Besides, the Activity entry in the series filed under Danio rerio [4] is “Toxic”; in the series filed under Danio rerio [5] it was “Toxic”; in the series listed under Danio rerio [6], “Toxic”; in the series listed under Danio rerio [7], “Non-toxic”; in the series listed under Danio rerio [8], “Toxic”.
Take `CCCCCCc1oc(=O)c2c(nn3c(-c4ccccc4)ccnc23)c1/C=C/C(=O)OCC`: in series [1], the inhibition result is “inactive”.
For `NC(=O)c1cccc(-c2c(-c3ccccc3)oc(=O)c3c2nn2c(-c4ccccc4)ccnc32)c1`, in [1], the inhibition is 93%. Besides, the half-maximal inhibitory concentration (IC50) in series [9] was found to be 1.33 µM; in [10] it was 2.84 µM; in the series on RAW264.7, 0.45 µM. Moreover, the EC50 (commonly the concentration giving half of the maximal effect) in series [11] turned out to be 11.7 µM; in [12] it was 6.32 µM; in series [13] it was 9.62 µM. The Activity result in the series filed under Danio rerio [4] was “Non-toxic”; in the series filed under Danio rerio [14], “Toxic”; in the series listed under Danio rerio [7], “Non-toxic”; in the series filed under Danio rerio [8], “Non-toxic”; in the series listed under Danio rerio [15] it was “Non-toxic”.
Take `CCCCCCc1oc(=O)c2c(nn3c(-c4ccccc4)ccnc23)c1/C=C/C(=O)OC(C)(C)C`: the inhibition entry in series [1] is “inactive”.
Turning to `O=c1oc(-c2ccccc2)c(-c2cccc([N+](=O)[O-])c2)c2nn3c(-c4ccccc4)ccnc3c12`, the inhibition in [1] is 74%.
In the case of `CCCCCC#Cc1c(-c2ccccc2)oc(=O)c2c1nn1c(-c3ccccc3)ccnc21`, the inhibition in series [1] is 50%.
Regarding `O=c1oc(-c2ccccc2)c(-c2ccc(F)cc2)c2nn3c(-c4ccccc4)ccnc3c12`, in [1], the inhibition is 66%.
`CCCCCCc1oc(=O)c2c(nn3c(-c4ccccc4)ccnc23)c1-c1cccc(C(N)=O)c1`: the inhibition in series [1] is 85%.
